Measured values taken from patent US8178506B2, “Oligomeric compounds and compositions for use in modulation of small non-coding RNAs” (Regulus Therapeutics Inc., priority 2003, dated 2012).
In the oligonucleotide strings, read from the 5' end, every base follows the letter of its sugar. An asterisk marks phosphorothioate; unmarked linkages are phosphodiester. Other units and linkages are bracketed, terminal groups are in braces. A string of capitals states the bases alone. e = 2'-O-(2-methoxyethyl) (MOE); [5mC] = 5-methylcytosine; d = 2'-deoxy (DNA)

What was measured:
ob/ob mice = assay: ob/ob mice: plasma parameters, food consumption, marker gene mRNA; format: in vivo, mouse; settings: ob/ob mice, 25 mg/kg s.c. two times per week, 6 weeks
Outline: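 Male C57Bl/6J ob/ob mice received oligomeric compound or control at 25 mg/kg s.c. twice weekly, for 4 weeks on a 10-15% fat diet or for 6 weeks on high-fat diet. Plasma glucose and insulin were measured at 0, 2 and 4 weeks; i.p. glucose/insulin tolerance tests were run; serum lipids, liver triglycerides and histology were assessed, with liver, BAT and WAT mRNA quantified by real-time PCR.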

B16-F10 cells = assay: Cell cycle assay in B16-F10 cells; format: cell-based, mouse; settings: 150 nM, 48 hours, relative to untreated control

CTAGTGGTCCTAAACATTTCAC (chemistry not given here) [ISIS 327878, uniform 2′-MOE PS; targets mir-203]
plasma glucose levels (fed) (ob/ob mice): reduced beginning at approximately four weeks after the start of treatment

328403 (antisense eA*eG*eG*e[5mC]*e[5mC]*dT*dA*dT*dT*d[5mC]*d[5mC]*dT*dG*dT*dA*eG*e[5mC]*eA*eA*eA) [compound 328403]
% cells in cell cycle phase G1 (B16-F10 cells): 111%
% cells in cell cycle phase G2/M (B16-F10 cells): 99%
% cells in cell cycle phase S (B16-F10 cells): 88%
% cells in cell cycle phase aneuploid (B16-F10 cells): 92%
% cells in cell cycle phase subG1 (B16-F10 cells): 112%
